Measured values reported in patent US5607926A, “Cephalosporin antibiotics” (Microcide Pharmaceuticals, Inc., priority 1995, dated 1997).
Converted amounts (≈) assume the structure as drawn. Where two headings read alike, the source gives them in different places.

Experiments:
Assay type in all cases: cell-based
[1] = tested on: S. haemolyticus (Meth^R); assay: In vitro antibacterial evaluation, MIC by agar dilution, S. haemolyticus; conditions: Staphylococcus haemolyticus, read-out: MIC
Summary of the method: (§1)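 Log-phase cultures (4-6 h broth growth) are adjusted to 0.5 McFarland and diluted to give roughly 10^4 cfu per 1 μL spot. Spots go onto Mueller-Hinton agar containing test compound in two-fold dilutions (128 to ≤0.25 μg/mL), then plates incubate 16-20 hours at 35°-36° C before MIC reading.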

[2] = tested on: S. epidermidis ATCC 31432; assay: In vitro antibacterial evaluation, MIC by agar dilution, S. epidermidis ATCC 31432; conditions: Staphylococcus epidermidis, ATCC31432
Experimental: (§2) The compounds of the invention were evaluated against several β-lactamresistant bacteria strains by determining the minimum inhibitory concentration (MIC, μg/ml) of each compound with respect to each strain. The MIC, the lowest concentration of antibiotic which inhibits growth of the test organism, was determined by the agar dilution method.
(§3) To determine the MIC for bacterial isolates, the test compound was incorporated in a series of two-fold dilutions into liquified Mueller-Hinton agar. Upon solidification, a number of different bacterial strains were spot inoculated with a replicating device onto the agar surface. […] The procedures used in these studies have been standardized by the National Committee for Clinical Laboratory Standards (NCCLS), as per the NCCLS publication entitled METHODS FOR DILUTION ANTIMICROBIAL SUSCEPTIBILITY TESTS (1991), which is incorporated herein by reference.
(§4) Aliquots of antimicrobial agents were prepared in phosphate buffered saline (PBS) at pH 7.2. Tween 20 or DMSO was used as a solubilizing vehicle as needed. Standard methods of vortexing, sonicating and gentle heat were used to facilitate solubilizing the test agent. Typically, the concentration of the stock solution was 10× that of the highest drug concentration tested. A 1.28 mg/mL stock solution was used with a subsequent highest working concentration of 128 μg/mL. Serial two-fold dilutions were done through ≤0.25 μg/mL. Each drug level was tested in duplicate. Two-fold drug dilutions were done in sterile 50 mL tubes with a final drug volume of 5 mL. Upon the addition of 45 mL of molten agar, a 10-fold dilution resulted. Two, 25 mL. plates were then poured into 15×150 mm square Petri plates with grids and allowed to harden.
(§5) A control plate with a reference drug, either cefotaxime, vancomycin or imipenem, was used as the positive growth control. Stock concentrations of reference antibiotics were prepared and frozen at -80° C. Upon preparation, the control plates were sealed and stored in the refrigerator for up to 1 week prior to use; however, imipenem control plates had to be prepared just prior to use. All test plates were used within 24 hours of preparation.
(§6) Satisfactory results were obtained where the inoculum contained about 10^4 colony forming units (cfu) ±0.5 logs. Starting with pure cultures of the test isolates on agar plates, a few isolated colonies were transferred to a tube of nutrient broth and allowed to grow 4-6 hours at 35°-36° C. to reach log-phase growth. Dropwise addition of the broth culture to PBS was done to match a 0.5 McFarland turbidity standard equal to 10^8 cfu/mL. This was further diluted ten-fold in PBS to reach a working inoculum concentration of 10^7 cfu/mL. When 1 μL of the working inoculum was applied to the agar surface a concentration of about 10^4 cfu per spot was obtained.
(§7) Disposable sterile 1 μL loops were used to inoculate test plates, with each isolate in a designated grid on the agar plate. An alternate method of inoculation involved the use of a replica plater, a device with 48 steel pins allowing the simultaneous inoculation of multiple isolates. After the spots had dried, the plates were incubated at 35°-36° C. for 16-20 hours. Endpoints were assessed as the minimum inhibitory concentration (MIC) of antimicrobial agent.

[3] = tested on: S. aureus 76 (Meth^R)(lac^+); assay: In vitro antibacterial evaluation, MIC by agar dilution, S. aureus 76; conditions: Staphylococcus aureus, read-out: MIC
Summary of the method: as §1

[4] = tested on: E. faecalis ATCC 29212; assay: In vitro antibacterial evaluation, MIC by agar dilution, E. faecalis ATCC 29212; conditions: Enterococcus faecalis, ATCC29212; E. faecalis ATCC 29212; read-out: MIC
Experimental: as §2, §3, §4, §5, §6, §7

[5] = tested on: E. coli ATCC 25922; assay: In vitro antibacterial evaluation, MIC by agar dilution, E. coli ATCC 25922; conditions: Escherichia coli, ATCC25922, read-out: MIC
Summary of the method: as §1

[6] = tested on: S. aureus ATCC 25923; assay: In vitro antibacterial evaluation, MIC by agar dilution, S. aureus ATCC 25923; conditions: Staphylococcus aureus, ATCC25923
Experimental: as §2, §3, §4, §5, §6, §7

[7] = tested on: P. aeruginosa ATCC 27853; assay: In vitro antibacterial evaluation, MIC by agar dilution, P. aeruginosa ATCC 27853; conditions: Pseudomonas aeruginosa, ATCC27853, read-out: MIC
Summary of the method: as §1

[8] = tested on: S. aureus Col8A (Meth^S)(lac^-); assay: In vitro antibacterial evaluation, MIC by agar dilution, S. aureus Col8A; conditions: Staphylococcus aureus
Summary of the method: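 Log-phase isolates were spot-inoculated at about 10^4 cfu onto Mueller-Hinton agar carrying duplicate two-fold compound levels, 128 μg/mL to ≤0.25 μg/mL, following NCCLS (1991). Plates were read after 16-20 h at 35°-36° C. The lowest growth-inhibiting concentration gave the MIC (μg/ml).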

[9] = tested on: E. faecium ATCC 35667; assay: In vitro antibacterial evaluation, MIC by agar dilution, E. faecium ATCC 35667; conditions: Enterococcus faecium, ATCC35667, read-out: MIC
Summary of the method: as §1

[10] = S. epidermidis ATCC 31432, read-out: MIC
[11] = S. aureus ATCC 25923, read-out: MIC

Row | SMILES | MIC [1] [µg/mL] | MIC [2] [µg/mL] | MIC [3] [µg/mL] | MIC [4] [µg/mL] | MIC [5] [µg/mL] | MIC [6] [µg/mL] | MIC [7] [µg/mL] | MIC [8] [µg/mL] | MIC [9] [µg/mL] | MIC [2, 10] [µg/mL] | MIC [6, 11] [µg/mL]
1 | N#CCC(=O)N[C@@H]1C(=O)N2C(C(=O)O)=C(Sc3ccccc3-c3ccccc3)CS[C@H]12 [Cmpd 34, (7R)-7-[(Cyanoacetyl)amino]-3-(2-biphenylthio)-3-cephem-4-carboxylic acid] | 8 (≈ 17.7 µM) | < 0.25 | 8 (≈ 17.7 µM) | 2 (≈ 4.43 µM) | > 32 | < 0.25 | > 32 | < 0.25 | 2 (≈ 4.43 µM) | – | –
2 | O=C(CSc1ccccc1)N[C@@H]1C(=O)N2C(C(=O)O)=C(Sc3cc(Cl)ccc3Cl)CS[C@H]12 [Cmpd 35, (7R)-7-[(Phenylthioacetyl)amino]-3-(2,5-dichlorophenylthio)-3-cephem-4-carboxylic acid] | 8 (≈ 15.2 µM) | < 0.25 | 2 (≈ 3.79 µM) | 1 (≈ 1.9 µM) | > 32 | < 0.25 | > 32 | < 0.25 | 1 (≈ 1.9 µM) | – | –
3 | C=Cc1ccccc1SC1=C(C(=O)O)N2C(=O)[C@@H](NC(=O)Cc3ccccc3)[C@H]2SC1 [Cmpd 36, (7R)-7-[(Phenylacetyl)amino]-3-(2-vinylphenylthio)-3-cephem-4-carboxylic acid] | 16 (≈ 35.4 µM) | < 0.25 | 8 (≈ 17.7 µM) | 2 (≈ 4.42 µM) | > 32 | < 0.25 | > 32 | < 0.25 | 4 (≈ 8.84 µM) | – | –
4 | O=C(Cc1ccccc1)N[C@@H]1C(=O)N2C(C(=O)O)=C(Sc3ccccc3-c3cccs3)CS[C@H]12 [Cmpd 37, (7R)-7-[(Phenylacetyl)amino]-3-(2-(2-thienyl)phenylthio)-3-cephem-4-carboxylic acid] | 16 (≈ 31.5 µM) | < 0.25 | 8 (≈ 15.7 µM) | 2 (≈ 3.93 µM) | > 32 | < 0.25 | > 32 | < 0.25 | 2 (≈ 3.93 µM) | – | –
5 | O=C(Cc1ccccc1)N[C@@H]1C(=O)N2C(C(=O)O)=C(Sc3ccccc3CO)CS[C@H]12 [Cmpd 38, (7R)-7-[(Phenylacetyl)amino]-3-(2-hydroxymethylphenylthio)-3-cephem-4-carboxylic acid] | 32 (≈ 70.1 µM) | < 0.25 | 16 (≈ 35 µM) | 4 (≈ 8.76 µM) | > 32 | < 0.25 | > 32 | < 0.25 | 4 (≈ 8.76 µM) | – | –
6 | O=C(Cc1ccccc1)N[C@@H]1C(=O)N2C(C(=O)O)=C(Sc3ccc(Br)cc3Br)CS[C@H]12 [Cmpd 39, (7R)-7-[(Phenylacetyl)amino]-3-(2,4-dibromophenylthio)-3-cephem-4-carboxylic acid] | 8 (≈ 13.7 µM) | < 0.25 | 4 (≈ 6.85 µM) | 2 (≈ 3.42 µM) | > 32 | < 0.25 | > 32 | < 0.25 | 2 (≈ 3.42 µM) | – | –
7 | O=C(Cc1ccccc1)N[C@@H]1C(=O)N2C(C(=O)O)=C(Sc3ccc(C(F)(F)F)cc3)CS[C@H]12 [Cmpd 40, (7R)-7-[(Phenylacetyl)amino]-3-(4-trifluoromethylphenylthio)-3-cephem-4-carboxylic acid] | 32 (≈ 64.7 µM) | < 0.25 | 16 (≈ 32.4 µM) | 4 (≈ 8.09 µM) | > 32 | < 0.25 | > 32 | < 0.25 | 4 (≈ 8.09 µM) | – | –
8 | Nc1nc(/C(=N/O)C(=O)N[C@@H]2C(=O)N3C(C(=O)O)=C(Sc4ccccc4-c4ccccc4)CS[C@H]23)cs1 [Cmpd 42, (7R)-7-[(Z)-2-(aminothiazol-4-yl)-2-(hydroxyimino)acetamido]-3-(2-biphenylthio)-3-cephem-4-carboxylic acid] | 16 (≈ 28.9 µM) | – | 8 (≈ 14.4 µM) | 2 (≈ 3.61 µM) | 32 (≈ 57.8 µM) | – | > 32 | 0.5 (≈ 0.903 µM) | 2 (≈ 3.61 µM) | < 0.25 | < 0.25
9 | COc1ccc(Cc2ccc(-c3ccccc3SC3=C(C(=O)O)N4C(=O)[C@@H](NC(=O)Cc5ccccc5)[C@H]4SC3)s2)cc1 [Cmpd 43, (7R)-7-[(Phenylacetyl)amino]-3-(2-(2-(4-methoxy-phenylmethyl)thien-5-yl)phenylthio)-3-cephem-4-carboxylic acid] | 16 (≈ 25.4 µM) | < 0.25 | 8 (≈ 12.7 µM) | 4 (≈ 6.36 µM) | > 32 | < 0.25 | > 32 | < 0.25 | 4 (≈ 6.36 µM) | – | –
10 | CSc1ccccc1SC1=C(C(=O)O)N2C(=O)[C@@H](NC(=O)Cc3ccccc3)[C@H]2SC1 [Cmpd 44, (7R)-7-[(Phenylacetyl)amino]-3-(2-methylthiophenylthio)-3-cephem-4-carboxylic acid] | 8 (≈ 16.9 µM) | < 0.25 | 4 to 8 (≈ 8.46 to 16.9 µM) | 4 (≈ 8.46 µM) | > 32 | < 0.25 | > 32 | < 0.25 | 4 (≈ 8.46 µM) | – | –
11 | Cn1cc[n+](Cc2ccc(-c3ccccc3SC3=C(C(=O)[O-])N4C(=O)[C@@H](NC(=O)Cc5ccccc5)[C@H]4SC3)s2)c1 [Cmpd 45, (7R)-7-[(Phenylacetyl)amino]-3-(2-(2-(N-methylimidazoliummethyl)thien-5-yl)phenylthio)-3-cephem-4-carboxylic acid] | 32 (≈ 53.1 µM) | – | 16 (≈ 26.5 µM) | 4 (≈ 6.64 µM) | > 32 | – | > 32 | 0.5 (≈ 0.83 µM) | 4 (≈ 6.64 µM) | < 0.25 | < 0.25
12 | CC(C)(C)c1ccccc1SC1=C(C(=O)O)N2C(=O)[C@@H](NC(=O)Cc3ccccc3)[C@H]2SC1 [Cmpd 46, (7R)-7-[(Phenylacetyl)amino]-3-(2-tert-butylphenylthio)-3-cephem-4-carboxylic acid] | 16 (≈ 33.2 µM) | < 0.25 | 8 (≈ 16.6 µM) | 2 (≈ 4.14 µM) | > 32 | < 0.25 | > 32 | < 0.25 | 2 (≈ 4.14 µM) | – | –
13 | CC(C)Oc1ccccc1SC1=C(C(=O)O)N2C(=O)[C@@H](NC(=O)Cc3ccccc3)[C@H]2SC1 [Cmpd 47, (7R)-7-[(Phenylacetyl)amino]-3-(2-iso-propyloxyphenylthio)-3-cephem-4-carboxylic acid] | 16 (≈ 33 µM) | < 0.25 | 8 (≈ 16.5 µM) | 4 (≈ 8.25 µM) | > 32 | < 0.25 | > 32 | < 0.25 | 2 (≈ 4.13 µM) | – | –
14 | Cn1cc[n+](Cc2ccoc2-c2ccccc2SC2=C(C(=O)[O-])N3C(=O)[C@@H](NC(=O)Cc4ccccc4)[C@H]3SC2)c1 [Cmpd 48, (7R)-7-[(Phenylacetyl)amino]-3-(2-(3-(N-methylimidazoliummethyl)furan-2-yl)phenylthio)-3-cephem-4-carboxylic acid] | 16 (≈ 27.3 µM) | – | 16 (≈ 27.3 µM) | 4 (≈ 6.82 µM) | > 32 | – | > 32 | 0.5 (≈ 0.852 µM) | 4 (≈ 6.82 µM) | < 0.25 | < 0.25
